Experimental data taken from patent US20260115250A1, “METHODS OF TREATING AGE-RELATED MACULAR DEGENERATION” (Character Biosciences, Inc., priority 2022, published 2026).
Peptide text beside a SMILES is read from it.

Experiments:
LDLR [1] = molecular target: T1, LDLR (Homo sapiens, UniProt P01130); assay: KD, Peptide (μM)
Description: Table printed on a drawing sheet, FIG. 24B
Title: Buffer: HBS + 0.005% P20
Head of the field: KD, Peptide (μM)
The patent's description of the figure: FIGS. 24A-24B are tables showing the binding kinetics results of LDLR binding assays (SPR), lipid-dependent binding with a low-surfactant preparation as described herein for select peptides shown in FIG. 1A-1I.
First copying reader's note: Continued from FIG. 24A; KD values are LDLR binding by SPR for the peptide alone and for its DMPC lipid complex, with the error given in the same cell after ±.
Where the first naming reader finds the target: description_of_the_figure: FIGS. 24A-24B are tables showing the binding kinetics results of LDLR binding assays (SPR)
Target sequence in this assay (P01130 22-860 limits assumed): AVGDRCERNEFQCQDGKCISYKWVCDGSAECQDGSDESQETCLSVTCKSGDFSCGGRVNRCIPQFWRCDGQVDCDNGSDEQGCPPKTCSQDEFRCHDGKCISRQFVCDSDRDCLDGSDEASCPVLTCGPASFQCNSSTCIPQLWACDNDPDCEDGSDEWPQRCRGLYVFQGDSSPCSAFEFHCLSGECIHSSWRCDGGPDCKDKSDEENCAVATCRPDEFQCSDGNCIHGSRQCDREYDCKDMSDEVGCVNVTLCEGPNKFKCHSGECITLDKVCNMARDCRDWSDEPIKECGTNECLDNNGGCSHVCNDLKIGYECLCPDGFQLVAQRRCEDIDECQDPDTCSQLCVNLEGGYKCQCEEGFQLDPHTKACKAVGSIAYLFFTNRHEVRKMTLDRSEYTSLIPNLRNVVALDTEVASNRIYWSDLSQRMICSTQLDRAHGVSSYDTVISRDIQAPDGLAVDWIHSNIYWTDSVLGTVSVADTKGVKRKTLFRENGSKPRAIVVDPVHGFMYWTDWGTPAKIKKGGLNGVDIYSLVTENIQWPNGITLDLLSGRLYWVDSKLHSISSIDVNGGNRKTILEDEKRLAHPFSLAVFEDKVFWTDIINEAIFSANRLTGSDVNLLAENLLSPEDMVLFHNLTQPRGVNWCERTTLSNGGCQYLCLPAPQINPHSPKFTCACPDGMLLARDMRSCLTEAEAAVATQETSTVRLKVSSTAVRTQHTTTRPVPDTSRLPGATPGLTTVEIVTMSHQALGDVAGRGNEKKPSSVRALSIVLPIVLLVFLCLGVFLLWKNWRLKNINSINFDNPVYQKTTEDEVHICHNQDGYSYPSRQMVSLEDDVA

ARPE-19 cells = assay: ARPE-19 cell viability assay (Cell Titer Glo); assay type: cell-based, human; details: 100 μM peptide, 1.5 hours
Protocol: ARPE-19 cells were seeded in 96-well plates at 25,000 cells/well and allowed to adhere to the plate surface for at least 24 hours. Peptides were diluted in serum-free DMEM: F12 to a final concentration of 100 μM. Cells were washed, then incubated in 100 μM peptide solution for 1.5 hours at 37° C. Plates were brought to room temperature for 30 minutes, then washed with DPBS. Cells were incubated in a 1:1 mixture of DPBS and Cell Titer Glo 2.0 Reagent for 10 minutes at room temperature, then cell luminescence was read on a plate reader. Viability values were background corrected, and 0% viability is determined by luminescence values of cells treated with 1% Triton-X-100. Data are presented as mean+SD over two separate runs.

[2] = DMPC solubility titration, 1 mM DMPC; assay type: biochemical; details: 3.16-100 μM peptides, 15 minutes
Protocol: FIGS. 4A-4B illustrate a screening assay based on DMPC solubility, measured by reducing turbidity of DMPC liposome solutions, for a subset of the peptides in FIGS. 1B-1I. FIGS. 4A-4B illustrate DMPC solubility titration curves. Peptide stocks were diluted to 200 μM in H2O (a 2× solution) and serially diluted in H2O over 4 concentrations, then 50 μL of peptide solutions were distributed in triplicate into 96-well plates. A 2 mM solution of 1,2-dimyristoyl-sn-glycero-3-phosphocholine (DMPC) in H2O was prepared, and using a multichannel pipet, 50 μL DMPC solution was rapidly added to the plate. Peptide and lipid solutions were incubated at room temperature for 15 minutes with final concentrations of 3.16-100 μM peptides and 1 mM DMPC. After 15 minutes, absorbance was read on a plate reader at 405 nm. […] Data are presented as mean+SD over two runs. Non-linear regression was used to calculate EC50 values.

HMC3 cells = assay: HMC3 cholesterol efflux; assay type: cell-based, human
Protocol: (§1) FIGS. 27A-27B and FIG. 28 illustrate HMC3 cholesterol efflux. Fully confluent 96-well plates of HMC3 cells were treated for 1 hour in serum-free EMEM containing 10 mM methyl-β-cyclodextrin, 100 μM cholesterol, and 25 μM BODIPY cholesterol. Cells were then washed and incubated overnight in serum free EMEM containing 1 μM LXR agonist GW3965, 2 μg/mL ACAT inhibitor, and 0.2% BSA (LXR Agonist treated), or serum-free EMEM containing 2 μg/mL ACAT inhibitor, and 0.2% BSA (Control). Cells were washed and incubated with 20 μM peptides diluted in serum-free Fluorobrite DMEM for 4 hours at 37° C. Media was transferred to a new 96-well plate and fresh serum-free Fluorobrite DMEM was placed on the cells. Media and cellular fluorescence were read on a Promega GloMax at 475 nm excitation, 500-550 emission. Fluorescence values were background corrected from no treatment conditions and percent efflux was calculated by the following equation: % efflux=(Media Fluorescence values)/(Media+Cell Fluorescence values). Data are presented as mean+SD over two runs per peptide.
as §1, with “FIGS. 30A-30J show” for “FIGS. 27A-27B and FIG. 28 illustrate”, “cholesterol efflux titration curves for the indicated peptides.” for “cholesterol efflux.”, “μM” for “μM LXR agonist”, “or serum free” for “or serum-free”, “with 0-100” for “with 20”, “peptides serially” for “peptides”

[3] = DMPC solubility assay, 0.5 mM DMPC (turbidity reduction); assay type: biochemical; details: FIGS. 2A-2D and 3A-3C
Outline: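 Peptides (100 μM final, or 3.16-100 μM for titrations) incubated with 0.5 mM DMPC in water for 15 minutes at room temperature. Turbidity read as absorbance at 405 nm; EC50 from non-linear regression, mean+SD over two runs.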

HepG2 cells = assay: HepG2 GAG dependent cholesterol import (with or without heparin); assay type: cell-based; details: HepG2, 10 μM peptide, with or without 100 μg/mL heparin
Protocol: HepG2 cells were seeded on 96-well plates at 10,000 cells per well and grown to confluence. A 2× solution of 500 μM DMPC and 50 μM BODIPY-Cholesterol with or without 100 μg/mL heparin was prepared in serum free EMEM. Peptides were diluted to 20 μM in serum-free EMEM (a 2× solution). Peptides were added to lipid solution in equal parts (60 μL each) and incubated for 1 hour at 37° C. HepG2 cells were serum starved in serum-free EMEM for 1 hour at 37° C. Peptide: Lipid complexes (100 μL total volume per well) were transferred to HepG2 cells for 2 hours at 37° C. Cells were washed, fixed, and intracellular fluorescence was read on Promega GloMax at 475 nm excitation, 500-550 emission. Fluorescence values were background corrected from no treatment conditions. Data are presented ±SD for 2 runs.

LDLR [4] = molecular target: T1, LDLR; assay: lipid-dependent LDLR binding (SPR), single concentration; details: 1 μM peptide with or without 25 μM DMPC
Protocol: Peptides were diluted in 1×HBS-N buffer with 1 mM CaCl2 to a final concentration of 1 μM and incubated with or without 25 μM DMPC for 1 hour at RT to form lipid complexes. Each peptide was tested in duplicate. LDLR was diluted to 10 μg/mL in 10 mM acetate buffer pH 4.5 and was immobilized (˜400RU) on a CM5 chip via amine coupling utilizing 1×HBS-P+ buffer with 1 mM CaCl2. Test peptides (with or without DMPC) were exposed to immobilized LDLR at a flow rate of […] for 120 seconds in HBS-N with 1 mM CaCl2. Between cycles the surface was regenerated with 3, 30 second injections of 10 mM NaOH and 100 mM EDTA. Data are plotted as max RU values, averaged from three separate runs.
Target sequence in this assay (P01130 22-860): as the sequence (P01130 22-860 limits assumed) above

[5] = peptide binding to non-oxidized and oxidized lipids (SPR); details: immobilized peptide; RU normalized to DMPC
Protocol: FIGS. 25A-25O show peptide binding activity to non-oxidized and oxidized lipids via SPR for indicated peptides. Peptides were reconstituted to 50 μg/mL in 10 mM acetate buffer, pH 4.5 and immobilized to ˜200 RU on a CM5 chip via amine coupling. Non-oxidized lipids (DMPC & POPC) and oxidized lipids (POVPC & KOdiA-PC) were diluted to 100 µM in HBS-EP running buffer and exposed to the chip for binding (n=3) at a flow rate of […] for 120 seconds. The surface was regenerated with 20% EtOH. T-001 served as a positive control and T-031 served as a negative control on each chip. For each peptide, the RU response for all lipids was normalized to the DMPC RU values.

Compound: CC(C)C[C@H](NC(=O)[C@H](Cc1c[nH]cn1)NC(=O)[C@H](CO)NC(=O)[C@H](C)NC(=O)[C@@H](N)CC(C)C)C(=O)N[C@@H](CCCNC(=N)N)C(=O)N[C@@H](CCCCN)C(=O)N[C@@H](CC(C)C)C(=O)N[C@@H](CCCNC(=N)N)C(=O)N[C@@H](CCCCN)C(=O)N[C@@H](CCCNC(=N)N)C(=O)N[C@@H](CC(C)C)C(=O)N[C@@H](CC(C)C)C(=O)N[C@@H](CCCNC(=N)N)C(=O)N[C@@H](CC(=O)O)C(=O)N[C@@H](C)C(=O)N[C@@H](CC(=O)O)C(=O)N[C@@H](CC(=O)O)C(=O)O [T-073]
- Kd (LDLR [1]): 4.27 ± 0.19 µM

Compound: CC(C)C[C@H](NC(=O)[C@H](CCCNC(=N)N)NC(=O)[C@H](CC(=O)O)NC(=O)[C@@H](NC(=O)[C@H](CC(C)C)NC(=O)[C@H](CCCCN)NC(=O)[C@H](CC(=O)O)NC(=O)CNC(=O)[C@H](CC(=O)O)NC(=O)[C@H](CCCNC(=N)N)NC(=O)[C@H](CC(C)C)NC(=O)[C@H](CC(C)C)NC(=O)[C@H](CCCNC(=N)N)NC(=O)[C@H](CCCCN)NC(=O)[C@H](CCCNC(=N)N)NC(=O)[C@H](CC(C)C)NC(=O)[C@H](CCCCN)NC(=O)[C@H](CCCNC(=N)N)NC(=O)[C@H](CC(C)C)NC(=O)[C@@H](N)Cc1c[nH]cn1)C(C)C)C(=O)N[C@@H](C)C(=O)N[C@@H](CCC(=O)O)C(=O)N[C@@H](Cc1ccc(O)cc1)C(=O)N[C@H](C(=O)N[C@@H](C)C(=O)N[C@@H](CCCNC(=N)N)C(=O)N[C@@H](C)C(=O)N[C@@H](CCCCN)C(=O)N[C@@H](CCC(=O)O)C(=O)N[C@@H](C)C(=O)N[C@@H](Cc1ccccc1)C(=O)N[C@@H](CC(=O)O)C(=O)N[C@@H](CCCNC(=N)N)C(=O)O)C(C)C [T-077] (H-HLRKLRKRLLRDGDKLVDRLAEYVARAKEAFDR-OH)
- ARPE-19 cell viability (ARPE-19 cells): substantial change in viability
- Kd (LDLR [1]): 33.2 ± 37.7 µM

Compound: REFRALFKELADYFRDAW [T-084, therapeutic peptide]
- EC50 [2]: 16.1 µM
- cholesterol efflux titration (HMC3 cells; HMC3, 0-100 μM peptide, LXR agonist): concentration-dependent increase in cholesterol efflux
- cholesterol efflux in the presence of LXR agonist (HMC3 cells; HMC3, 20 μM peptide, 4 hours): greater cholesterol efflux

Compound: T-029: therapeutic peptide (HLRKLRKRLLRDGDKLCDRLAEYCARAKEAFDR)
- DMPC solubilizing activity [3]: significant activity
- GAG dependence of cholesterol import (HepG2 cells): rely on GAG binding for cholesterol import activity
- lipid-dependent LDLR binding (RU with lipid vs peptide alone) (LDLR [4]): lipid-dependent LDLR binding activity
- binding to oxidized lipids relative to DMPC [5]: binding to at least one oxidized lipid that was equivalent or improved to binding against DMPC
